Biological target: T1, Gtf180-ΔN (Limosilactobacillus reuteri, UniProt Q5SBN3, Q1140E)
T1 construct: N-terminally truncated fragment (first 741 residues removed), 117 kDa; start 742 derived from the printed truncation
Experiment: HPLC time course of transglucosylation
Format: biochemical
Settings: acceptor substrate; 84 mM RebA, 282 mM sucrose donor, 5 U/mL enzyme, 1 mM CaCl2, pH 4.7, 37 °C

T1 sequence (Q5SBN3 entry or part of it Q1140E): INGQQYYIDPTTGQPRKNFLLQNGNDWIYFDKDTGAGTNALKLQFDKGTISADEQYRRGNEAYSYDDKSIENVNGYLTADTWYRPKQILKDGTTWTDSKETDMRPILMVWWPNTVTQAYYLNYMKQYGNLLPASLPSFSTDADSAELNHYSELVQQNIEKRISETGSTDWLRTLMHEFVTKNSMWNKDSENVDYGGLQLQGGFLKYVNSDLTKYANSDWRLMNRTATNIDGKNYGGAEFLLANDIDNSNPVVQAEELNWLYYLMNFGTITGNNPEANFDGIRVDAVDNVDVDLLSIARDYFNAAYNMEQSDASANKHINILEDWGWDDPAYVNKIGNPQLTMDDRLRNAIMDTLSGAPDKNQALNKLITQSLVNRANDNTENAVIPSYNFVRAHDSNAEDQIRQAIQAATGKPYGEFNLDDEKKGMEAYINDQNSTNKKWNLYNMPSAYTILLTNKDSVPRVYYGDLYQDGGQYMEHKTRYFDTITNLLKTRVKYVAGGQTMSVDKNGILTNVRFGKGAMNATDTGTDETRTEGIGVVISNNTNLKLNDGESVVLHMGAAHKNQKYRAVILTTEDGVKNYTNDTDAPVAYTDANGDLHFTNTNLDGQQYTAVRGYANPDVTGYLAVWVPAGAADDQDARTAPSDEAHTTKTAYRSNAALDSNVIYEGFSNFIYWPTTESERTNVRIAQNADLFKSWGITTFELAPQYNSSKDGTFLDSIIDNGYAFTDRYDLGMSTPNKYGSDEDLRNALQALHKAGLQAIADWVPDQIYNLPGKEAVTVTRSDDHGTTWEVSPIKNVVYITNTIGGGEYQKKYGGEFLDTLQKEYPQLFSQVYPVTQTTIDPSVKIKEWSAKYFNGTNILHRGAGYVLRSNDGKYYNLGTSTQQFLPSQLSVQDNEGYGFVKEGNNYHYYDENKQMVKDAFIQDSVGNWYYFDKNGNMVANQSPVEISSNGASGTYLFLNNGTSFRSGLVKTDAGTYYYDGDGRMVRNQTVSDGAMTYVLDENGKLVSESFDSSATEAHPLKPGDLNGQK

## C=C1C[C@@]23CC[C@H]4[C@@](C)(CCC[C@@]4(C)C(=O)O[C@@H]4O[C@H](CO)[C@@H](O)[C@H](O)[C@H]4O)[C@@H]2CC[C@]1(O[C@@H]1O[C@H](CO)[C@@H](O)[C@H](O[C@@H]2O[C@H](CO)[C@@H](O)[C@H](O)[C@H]2O)[C@H]1O[C@@H]1O[C@H](CO)[C@@H](O)[C@H](O)[C@H]1O)C3 [rebaudioside A]
  HPLC time course of transglucosylation: the Q1140E-mutant not only converted more RebA into RebA-G than wild-type Gtf180-ΔN
